Consider two compounds from PMC12802350, “Opposite effects of spermidine and GC7 in cell culture are dictated by distinct molecular targets” (Biochemical Journal, 2025).

For experiment [1], the target named is T1, bovine serum amine oxidase (BSAO) (Bos taurus, UniProt Q29437).
T1 sequence (Q29437 17-762): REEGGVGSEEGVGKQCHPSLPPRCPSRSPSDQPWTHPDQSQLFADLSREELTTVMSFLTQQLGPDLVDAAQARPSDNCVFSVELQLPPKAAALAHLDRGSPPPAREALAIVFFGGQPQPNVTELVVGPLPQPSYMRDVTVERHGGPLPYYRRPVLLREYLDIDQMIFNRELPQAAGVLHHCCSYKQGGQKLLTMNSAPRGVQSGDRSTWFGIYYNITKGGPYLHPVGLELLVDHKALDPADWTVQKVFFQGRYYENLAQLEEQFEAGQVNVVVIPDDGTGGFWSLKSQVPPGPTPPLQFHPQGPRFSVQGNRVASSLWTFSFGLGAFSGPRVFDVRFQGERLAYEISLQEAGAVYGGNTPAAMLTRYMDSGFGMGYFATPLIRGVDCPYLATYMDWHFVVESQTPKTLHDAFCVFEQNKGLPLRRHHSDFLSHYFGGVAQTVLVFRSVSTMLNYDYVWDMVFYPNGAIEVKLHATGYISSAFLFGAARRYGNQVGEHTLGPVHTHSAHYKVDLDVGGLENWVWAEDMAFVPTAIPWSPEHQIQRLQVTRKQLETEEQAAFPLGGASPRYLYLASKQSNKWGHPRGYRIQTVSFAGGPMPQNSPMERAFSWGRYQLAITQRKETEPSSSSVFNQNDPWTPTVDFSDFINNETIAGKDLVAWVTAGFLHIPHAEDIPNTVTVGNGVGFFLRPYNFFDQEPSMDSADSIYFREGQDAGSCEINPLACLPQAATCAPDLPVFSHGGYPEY
Briefly: DCHBS/AAP peroxide-coupled kinetic assay with spermidine as substrate, Morrison tight-binding fit. It is filed as biochemical. Also on record: BSAO purified from bovine blood.

The target in experiment [2] is T1, bovine serum amine oxidase (BSAO). Briefly: spectrophotometric benzaldehyde formation at […] nm. Also on record: BSAO purified from bovine blood; also decomplemented FBS. The format is biochemical.

In experiment [1], `N=C(N)NCCCCCCCN` [GC7] displayed an inhibition constant (Ki) of 0.308 µM. As to `NCc1ccccc1` [benzylamine], the “spectrophotometric benzaldehyde formation at 250 nm” value in experiment [2] is “BSAO and decomplemented FBS activities were determined spectrophotometrically as the amount of benzaldehyde formed per min (μmol/min) from benzylamine”.
